Assay results reported in article PMC12560828, “Chemical structure drives developmental toxicity of alkyl-substituted naphthalenes in zebrafish” (Environment international, 2025).

Tested on: zebrafish larvae, 120 hpf
Test: Larval photomotor response (LPR) assay after vial exposure
Type: in vivo, Danio rerio
Conditions: LPR
Method in brief: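 Embryos bleached at 6 hpf, exposed in sealed glass vials (8 per vial, DMSO stock at 200x) with rotation overnight at 28 °C, then singulated into chemical-free medium and kept dark at 28 °C. Movement tracked minutes 6–24 at 120 hpf, 6 s bins log-normalized to AUC; LEL per light/dark period from first cycle; nominal water concentrations, dead/malformed larvae excluded.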

[1] = period dark, round 1, conc 3.125
[2] = period dark, round 1, conc 6.25
[3] = period dark, round 1, conc 12.5
[4] = period dark, round 2, conc 37.5
[5] = period light, round 1, conc 3.125
[6] = period light, round 1, conc 6.25
[7] = period light, round 1, conc 12.5
[8] = period light, round 2, conc 37.5

SMILES	fold_change [1]	fold_change [2]	fold_change [3]	fold_change (period dark, round 1, conc 25)	fold_change (period dark, round 2, conc 30)	fold_change [4]	fold_change [5]	fold_change [6]	fold_change [7]	fold_change (period light, round 1, conc 25)	fold_change (period light, round 2, conc 30)	fold_change [8]	fold_change (period dark, round 1, conc 50)	fold_change (period light, round 1, conc 50)	fold_change (period dark, round 2, conc 12.8)	fold_change (period dark, round 2, conc 16)	fold_change (period dark, round 2, conc 20)	fold_change (period light, round 2, conc 12.8)	fold_change (period light, round 2, conc 16)	fold_change (period light, round 2, conc 20)
CCc1ccc2ccccc2c1 [2-ethylnaphthalene]	-0.0209	-0.02917	-0.4131	-0.9177	-0.0665	-0.3116	-0.3417	0.05317	0.3434	-0.2321	0.3708	-0.3232								
Cc1cccc2c(C)cccc12 [1,5-dimethylnaphthalene]	0.2385	0.04355	0.0001175	-0.1166	-0.72	-0.6231	0.2204	0.1087	0.8122	0.799	0.3918	0.2643								
Cc1ccc2ccc(C)cc2c1 [2,7-dimethylnaphthalene]	0.1561	-0.165	-0.13	-0.7363			0.7628	0.4574	1.067	1.005			-0.8227	0.2181						
Cc1cc(C)c2c(C)cccc2c1 [2,4,5-trimethylnaphthalene]	-0.1188	-0.09148	-0.4407				-0.1438	-0.1964	0.215						-0.3131	-0.104	-0.2326	-0.6609	0.3746	0.3257
Cc1ccc2cccc(C)c2c1 [1,7-dimethylnaphthalene]	-0.2153	-0.5415	-0.6708	-0.6391			-0.5634	-0.1569	-0.05053	0.1308										
